Reference: publication PMC5754397, “Population pharmacokinetics of nintedanib, an inhibitor of tyrosine kinases, in patients with non-small cell lung cancer or idiopathic pulmonary fibrosis” (Cancer Chemotherapy and Pharmacology, 2017)

How the values were obtained:
[1] = tested on: P-glycoprotein (P-gp); parameters: method as in ref 13, 21, 22 = [13]; 13. Boehringer Ingelheim (2017) OFEV® (nintedanib) capsules, for oral use; Prescribing information, revised: 08/2017. http://docs.boehringer-ingelheim.com/Prescribing%20Information/PIs/Ofev/ofev.pdf . || [21]; 21. Boehringer Ingelheim (2013) Relative bioavailability of nintedanib given alone and in combination with ketoconazole at steady state in healthy male volunteers (an open-label, randomised, two-way c || [22]; 22. Boehringer Ingelheim (2013) Relative bioavailability of a single oral dose of nintedanib given alone and in combination with multiple oral doses of rifampicin in healthy male volunteers (an open-l); details: cited from earlier work
[2] = parameters: method as in PMID 20460487, PMID 25299232; details: cited from earlier work
[3] = cited from earlier work
[4] = parameters: method as in ref 13, 21, 22 = [13]; 13. Boehringer Ingelheim (2017) OFEV® (nintedanib) capsules, for oral use; Prescribing information, revised: 08/2017. http://docs.boehringer-ingelheim.com/Prescribing%20Information/PIs/Ofev/ofev.pdf . || [21]; 21. Boehringer Ingelheim (2013) Relative bioavailability of nintedanib given alone and in combination with ketoconazole at steady state in healthy male volunteers (an open-label, randomised, two-way c || [22]; 22. Boehringer Ingelheim (2013) Relative bioavailability of a single oral dose of nintedanib given alone and in combination with multiple oral doses of rifampicin in healthy male volunteers (an open-l); details: cited from earlier work
[5] = parameters: method as in ref 34 = [34]; 34. Boehringer Ingelheim (2015) Pharmacokinetics, safety and tolerability of nintedanib single oral dose in male and female patients with different degrees of hepatic impairment (Child-Pugh classifica); details: Child–Pugh classification, subjects with liver cirrhosis; cited from earlier work
[6] = clinical; details: human, in vivo
Description: An overview of these studies is provided in Online Resource Table S1. […] Treatment continued until disease progression or intolerable toxicity. […] Treatment cycles were continued until disease progression or intolerable toxicity. […] In all four trials, dose reductions and interruptions were allowed to manage adverse events. All studies were conducted in accordance with the Declaration of Helsinki and with approval of the local ethics committees. Written informed consent was obtained from all patients before study entry. Blood sampling schema for measurement of nintedanib plasma concentrations varied. For all trials, at least two pre-dose and two post-dose blood samples were scheduled during treatment (see Online Resource Table S1). In addition, more extensive sampling was performed in the two Phase II trials. Nintedanib and BIBF 1202 plasma concentrations were analyzed by validated liquid chromatography-mass spectrometry (HPLC-MS/MS) methods. […] The population pharmacokinetic analysis was performed using non-linear mixed-effects modeling techniques (NONMEM, version VI 2.0, ICON Development Solutions, Ellicott City, Maryland, USA). The first-order conditional estimation algorithm with interaction was used. Data processing, diagnostic plots, and calculation of descriptive statistics were performed using R version 2.12.1 (http://www.rproject.org) and SAS version 9.2 (SAS Institute Inc, Cary, NC, USA). Bootstrap analysis was performed using Perl-speaks-NONMEM, version 3.5.3 [24, 25]. A sequential approach was used for population pharmacokinetic model development. […] Inter-individual variability (IIV, η) and inter-occasion variability (IOV, κ) were modeled using exponential random effect models. For testing IOV, each visit was defined as one occasion. […] Model selection was guided by change in objective function values (OFV), identifiability of parameters and precision of parameter estimates, correlation between the estimates of fixed-effect parameters, numerical stability, ability to obtain a successful COVARIANCE step, and visual inspection of basic goodness-of-fit plots. The effects of intrinsic patient factors (e.g., gender, age, body weight, ethnicity, laboratory values, and NSCLC histology) and extrinsic factors (e.g., smoking history and alcohol consumption) on pharmacokinetic parameters of nintedanib were evaluated by applying a stepwise forward inclusion/backward elimination approach. Combinations of covariates and model parameters to be tested were pre-specified based on prior knowledge, physiological plausibility, or general clinical interest (see Online Resource Table S2). Potential effects of patient population (NSCLC versus IPF) or treatment regimen (monotherapy versus combination therapy with docetaxel or pemetrexed) could not be distinguished from trials effects, and were, therefore, not re-evaluated during covariate analysis. To assess the effect of hepatic impairment on apparent total plasma clearance (CL/F) and relative bioavailability (F1), alanine transaminase (ALT), aspartate transaminase (AST), and total bilirubin (BIL) were tested individually and in combination using an adapted liver dysfunction group (LDF) composite developed for organ dysfunction studies by the Organ Dysfunction Working Group of the National Cancer Institute. In this classification, hepatic dysfunction is classified as mild (subdivided into two subgroups), moderate, or severe according to ALT, AST, and BIL levels relative to the upper limit of normal (ULN) (see Table 1). This categorization was preferred over the classical Child-Pugh classification (based on assessments of BIL, albumin, prothrombin time, encephalopathy, and ascites) commonly used to assess surgical risk in cirrhotic patients, as it has potential disadvantages for use in oncology patients. Creatinine clearance (CLCR) estimated by the Cockcroft-Gault equation [31] was used as surrogate for renal function. […]

## COC(=O)c1ccc2c(c1)NC(=O)/C2=C(\Nc1ccc(N(C)C(=O)CN2CCN(C)CC2)cc1)c1ccccc1 [nintedanib]
[1]
  substrate of P-glycoprotein (P-gp): substrate
[2]
  pharmacokinetic interaction between nintedanib and either docetaxel or pemetrexed: no significant pharmacokinetic interaction
[3]
  absolute bioavailability: about 5%
  dose proportionality of total and peak systemic exposures: dose-proportional
  geometric mean terminal elimination half-life: 10 to 15 h
[3]; estimated
  total fraction of nintedanib and its metabolites absorbed: 23%
[3]; patients with solid tumors
  time of peak plasma concentrations after oral dosing: 2 to 4 h
[3]; twice-daily dosing
  time to steady state: ≤ 7 days
[4]; 400 mg ketoconazole (potent P-gp inhibitor)
  increase of nintedanib exposure on co-administration with ketoconazole: 60%
[4]; 600 mg rifampicin (potent P-gp inducer)
  decrease of nintedanib exposure on co-administration with rifampicin: 50%
[5]
  increase in nintedanib exposure, mild hepatic impairment: ~2 fold
  increase in nintedanib exposure, moderate hepatic impairment: ~8 fold
[6]
  ALAG: 0.470 (–) h
  CL/F (θCL): 875 (–) L/h
  F1 higher in NSCLC phase II and LUME-Lung 2 trials than in LUME-Lung 1 and IPF phase II trials: 30%
  V2/F (θV2): 617 (–) L
  V2 when applying non-flip-flop kinetics in the final model: 10,700 L
  Vd/F: 465 L
  absorption-rate constant, Phase II trials versus Phase III trials: 2 fold
  change in exposure by any individual covariate at extreme values relative to a typical patient: ≤ 33%
  covariate effect on F1, θAge: 0.00942 (–)
  difference in nintedanib pharmacokinetics for Black patients, alcohol consumption or UGT1A1 polymorphism status: no substantial difference
  dose linearity: No major deviation from dose linearity
  impact of gender, patient population, NSCLC histology, therapy regimen, ECOG status, liver metastases, mild or moderate renal impairment, LDH on nintedanib pharmacokinetics: no statistically significant impact
  increase of F1, mild 1 liver dysfunction category: 8%
  increase of F1, mild 2 liver dysfunction category: 13%
  ka (θka): 0.0391 (–) h^-1
  ka (θka), first-order absorption-rate constant: 0.0376 (7.77) h^−1
  ka higher in phase II NSCLC and IPF trials than in the two NSCLC Phase III trials: 120%
  ka when applying non-flip-flop kinetics in the final model: 1.64 h⁻¹
  ka, absorption rate of a typical patient: 0.0827 h⁻¹
  lag time: 25 min
  percentage change in AUCτ,ss: Chinese/Taiwanese/Indian: ↑33%
  percentage change in AUCτ,ss: Korean: ↓22%
  percentage change in AUCτ,ss: age 45 years (5th percentile): ↓16%
  percentage change in AUCτ,ss: age 76 years (95th percentile): ↑13%
  percentage change in AUCτ,ss: body weight 50 kg (5th percentile): ↑25%
  percentage change in AUCτ,ss: body weight 100 kg (95th percentile): ↓19%
  percentage change in AUCτ,ss: current smoker: Current smoker: ↓21%
  ratios of AUCτ,ss for each factor other than ethnic origin: 80–125%
[6]; absorption half-life
  half-life: 8.38 h
[6]; elimination half-life (population mean)
  half-life: 0.36 h
